Experimental data published in US10954252B1, “Inhibitors of human immunodeficiency virus replication” (ViiV HEALTHCARE UK (NO.5) LIMITED, priority 2017, dated 2021).

Legend:
[1] = Compound cytotoxicity, XTT-based colorimetric assay; assay type: cell-based; conditions: human, uninfected MT2 cells, Table 1, day 4, XTT
Outline: (§1)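 XTT colorimetric read-out on day 4 gave CC50 values, using MT2 cells left uninfected but otherwise handled as in the antiviral assay.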

[2] = Stereoisomer interconversion on storage in MeOH at ambient condition; assay type: physicochemical; conditions: stored in MeOH at ambient condition
[3] = tested on: recombinant NL4-3 virus (nef section replaced with Renilla luciferase gene) in MT-2 cells; assay: HIV cell culture assay (antiviral activity, luciferase readout); assay type: cell-based; conditions: MT-2 cells infected for 4-5 days with recombinant NL4-3 luciferase virus
Outline: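 Serially diluted compounds were present throughout a 4-5 day infection of MT-2 cells by recombinant NL4-3 whose nef region partly encodes Renilla luciferase. Antiviral activity was taken from live-cell luciferase signal, with the 50% effective concentration fitted by the exponential median effect equation.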

uninfected MT2 cells = assay: Compound cytotoxicity, XTT-based colorimetric assay; assay type: cell-based; conditions: Table 1a, day 4, XTT
Outline: as §1

Cn1nc(NS(C)(=O)=O)c2c(Cl)ccc(-n3c(C(Cc4cc(F)cc(F)c4)NC(=O)Cn4nc(C(F)F)c5c4C(F)(F)[C@@H]4C[C@H]54)nc4nc(C(F)(F)F)ccc4c3=O)c21 (mixture of isomers) [Example 11.1, N—((S)-1-(3-(4-chloro-1-methyl-3-(methylsulfonamido)-1H-indazol-7-yl)-4-oxo-7-(trifluoromethyl)-3,4-dihydropyrido[2,3-d]pyrimidin-2-yl)-2-(3,5-difluorophenyl)ethyl)-2-((3bS,4aR)-3-(difluoromethyl)-5,5-difluoro-3b,4,4a,5-tetrahydro-1H-cyclopropa[3,4]cyclopenta[1,2-c]pyrazol-1-yl)acetamide]
CC50 at 4 days [1]: > 10000 nM | conversion to another stereoisomer on storage [2]: one of the isomers in Example 11.1 converts to Example 11.2 | EC50 ([3]; Renilla, NL43, Table 1): 520 nM

Cn1nc(NS(C)(=O)=O)c2c(Cl)ccc(-n3c([C@H](Cc4cc(F)cc(F)c4)NC(=O)Cn4nc(C(F)F)c5c4C(F)(F)[C@@H]4C[C@H]54)nc4c(Cl)cccc4c3=O)c21 (single isomer, unassigned) [Example 102]
CC50 (uninfected MT2 cells): > 1000 nM | EC50 ([3]; Table 1a): 1.04 nM

COc1cccc2c(=O)n(-c3ccc(Cl)c4c(NS(C)(=O)=O)nn(C)c34)c([C@H](Cc3cc(F)cc(F)c3)NC(=O)Cn3nc(C(F)F)c4c3C(F)(F)[C@@H]3C[C@H]43)nc12 (single isomer, unassigned) [Example 104]
CC50 (uninfected MT2 cells): > 1000 nM | EC50 ([3]; Renilla, NL43, Table 1a): 0.064 nM

Cc1c(F)ccc2c(=O)n(-c3ccc(Cl)c4c(NS(C)(=O)=O)nn(C)c34)c([C@H](Cc3cc(F)cc(F)c3)NC(=O)Cn3nc(C(F)F)c4c3C(F)(F)[C@@H]3C[C@H]43)nc12 (single isomer, unassigned) [Example 108]
CC50 (uninfected MT2 cells): > 1000 nM | EC50 ([3]; Table 1a): 0.85 nM

COc1c(F)ccc2c(=O)n(-c3ccc(Cl)c4c(NS(C)(=O)=O)nn(C)c34)c([C@H](Cc3cc(F)cc(F)c3)NC(=O)Cn3nc(C(F)F)c4c3C(F)(F)[C@@H]3C[C@H]43)nc12 (single isomer, unassigned) [Example 110]
CC50 (uninfected MT2 cells): > 1000 nM | EC50 ([3]; Table 1a): 0.072 nM

COc1c(F)ccc2c(=O)n(-c3ccc(Cl)c4c(NS(C)(=O)=O)nn(C)c34)c([C@H](Cc3cc(F)cc(F)c3)NC(=O)Cn3ccc(C4CC4)n3)nc12 (single isomer, unassigned) [Example 112]
CC50 (uninfected MT2 cells): > 1000 nM | EC50 ([3]; Table 1a): 0.51 nM

COc1c(F)cc2c(=O)n(-c3ccc(Cl)c4c(NS(C)(=O)=O)nn(C)c34)c([C@H](Cc3cc(F)cc(F)c3)NC(=O)Cn3ccc(C4CC4)n3)nc2c1F (single isomer, unassigned) [Example 116]
CC50 (uninfected MT2 cells): > 1000 nM | EC50 ([3]; Table 1a): 0.231 nM

Cn1ccc2nc(C(Cc3cc(F)cc(F)c3)NC(=O)Cn3nc(C(F)F)c4c3C(F)(F)[C@@H]3C[C@H]43)c(-c3ccc(Cl)c4c(NS(C)(=O)=O)nn(C)c34)cc21 (single isomer, unassigned) [Example 118]
CC50 (uninfected MT2 cells): > 10000 nM | EC50 ([3]; Table 1a): 0.162 nM

Cn1ccc2nc([C@H](Cc3cc(F)cc(F)c3)NC(=O)Cn3nc(C(F)F)c4c3C(F)(F)[C@@H]3C[C@H]43)c(-c3ccc(Cl)c4c(NS(C)(=O)=O)nn(C)c34)cc21 (single isomer, unassigned) [Example 120]
CC50 (uninfected MT2 cells): > 10000 nM | EC50 ([3]; Table 1a): 0.0753 nM

Cn1ccc2nc([C@@H](Cc3cc(F)cc(F)c3)NC(=O)Cn3nc(C(F)F)c4c3C(F)(F)[C@@H]3C[C@H]43)c(-c3ccc(Cl)c4c(NS(C)(=O)=O)nn(C)c34)cc21 (single isomer, unassigned) [Example 122]
CC50 (uninfected MT2 cells): > 10000 nM | EC50 ([3]; Table 1a): 172 nM

Cc1cccc2nc([C@H](Cc3cc(F)cc(F)c3)NC(=O)Cn3nc(C(F)F)c4c3C(F)(F)[C@@H]3C[C@H]43)n(-c3ccc(Cl)c4c(NS(C)(=O)=O)nn(C)c34)c(=O)c12 (single isomer, unassigned) [Example 126]
CC50 (uninfected MT2 cells): > 1000 nM | EC50 ([3]; Table 1a): 0.054 nM

Cn1nc(NS(C)(=O)=O)c2c(Cl)ccc(-n3c([C@H](Cc4cc(F)cc(F)c4)NC(=O)Cn4nc(C(F)F)c5c4C(F)(F)[C@@H]4C[C@H]54)nc4cccc(C(F)(F)F)c4c3=O)c21 (single isomer, unassigned) [Example 128]
CC50 (uninfected MT2 cells): > 1000 nM | EC50 ([3]; Table 1a): 0.62 nM

Cc1cccc2nc([C@H](Cc3cc(F)cc(F)c3)NC(=O)Cn3ccc(C4CC4)n3)n(-c3ccc(Cl)c4c(NS(C)(=O)=O)nn(C)c34)c(=O)c12 (single isomer, unassigned) [Example 134]
CC50 (uninfected MT2 cells): > 1000 nM | EC50 ([3]; Table 1a): 2.21 nM

Cn1nc(NS(C)(=O)=O)c2c(Cl)ccc(-n3c([C@H](Cc4cc(F)cc(F)c4)NC(=O)Cn4nc(C(F)F)c5c4C(F)(F)[C@@H]4C[C@H]54)nc4cc(C(F)(F)F)ccc4c3=O)c21 (single isomer, unassigned) [Example 138]
CC50 (uninfected MT2 cells): > 1000 nM | EC50 ([3]; Table 1a): 0.042 nM

Cn1nc(NS(C)(=O)=O)c2c(Cl)ccc(-n3c([C@H](Cc4cc(F)cc(F)c4)NC(=O)Cn4ccc(C(F)(F)F)n4)nc4cc(C(F)(F)F)ccc4c3=O)c21 (single isomer, unassigned) [Example 142]
CC50 (uninfected MT2 cells): > 1000 nM | EC50 ([3]; Table 1a): 4.98 nM

Cn1nc(NS(C)(=O)=O)c2c(Cl)ccc(-n3c([C@H](Cc4cc(F)cc(F)c4)NC(=O)Cn4ccc(C(F)(F)F)n4)nc4ccc(OC(F)(F)F)cc4c3=O)c21 (single isomer, unassigned) [Example 144]
CC50 (uninfected MT2 cells): > 1000 nM | EC50 ([3]; Table 1a): 8.08 nM

Cn1nc(NS(C)(=O)=O)c2c(Cl)ccc(-n3c([C@H](Cc4cc(F)cc(F)c4)NC(=O)Cn4ccc(C5CC5)n4)nc4c(F)ccc(F)c4c3=O)c21 (single isomer, unassigned) [Example 146]
CC50 (uninfected MT2 cells): > 1000 nM | EC50 ([3]; Table 1a): 0.62 nM

Cn1nc(NS(C)(=O)=O)c2c(Cl)ccc(-n3c([C@H](Cc4cc(F)cc(F)c4)NC(=O)Cn4nc(C(F)F)c5c4C(F)(F)[C@@H]4C[C@H]54)nc4c(F)ccc(F)c4c3=O)c21 (single isomer, unassigned) [Example 148]
CC50 (uninfected MT2 cells): > 1000 nM | EC50 ([3]; Table 1a): 0.13 nM

Cn1nc(NS(C)(=O)=O)c2c(Cl)ccc(-n3c([C@H](Cc4cc(F)cc(F)c4)NC(=O)Cn4ccc(C5CC5)n4)nc4cc(C(F)(F)F)ccc4c3=O)c21 (single isomer, unassigned) [Example 151]
CC50 (uninfected MT2 cells): > 1000 nM | EC50 ([3]; Renilla, NL43, Table 1a): 0.74 nM

Cn1nc(NS(C)(=O)=O)c2c(Cl)ccc(-n3c([C@H](Cc4cc(F)cc(F)c4)NC(=O)Cn4ccc(C5CC5)n4)nc4ccc(OC(F)(F)F)cc4c3=O)c21 (single isomer, unassigned) [Example 153]
CC50 (uninfected MT2 cells): > 1000 nM | EC50 ([3]; Table 1a): 0.97 nM

Cn1nc(NS(C)(=O)=O)c2c(Cl)ccc(-n3c([C@H](Cc4cc(F)cc(F)c4)NC(=O)Cn4nc(C(F)F)c5c4C(F)(F)[C@@H]4C[C@H]54)nc4ccc(F)c(Cl)c4c3=O)c21 (single isomer, unassigned) [Example 161]
CC50 (uninfected MT2 cells): > 1000 nM | EC50 ([3]; Table 1a): 28.9 nM

COc1ccc2nc([C@H](Cc3cc(F)cc(F)c3)NC(=O)Cn3nc(C(F)F)c4c3C(F)(F)[C@@H]3C[C@H]43)n(-c3ccc(Cl)c4c(NS(C)(=O)=O)nn(C)c34)c(=O)c2c1 (single isomer, unassigned) [Example 174]
CC50 (uninfected MT2 cells): > 1000 nM | EC50 ([3]; Table 1a): 0.096 nM

Cn1nc(NS(C)(=O)=O)c2c(Cl)ccc(-n3c([C@H](Cc4cc(F)cc(F)c4)NC(=O)Cn4nc(C(F)F)c5c4C(F)(F)[C@@H]4C[C@H]54)nc4ccc(Cl)c(F)c4c3=O)c21 (single isomer, unassigned) [Example 177]
CC50 (uninfected MT2 cells): > 1000 nM | EC50 ([3]; Table 1a): 45 nM

Cn1nc(NS(C)(=O)=O)c2c(Cl)ccc(-n3c([C@H](Cc4cc(F)cc(F)c4)NC(=O)Cn4nc(C(F)F)c5c4C(F)(F)[C@@H]4C[C@H]54)nc4cc(Cl)cc(Cl)c4c3=O)c21 (single isomer, unassigned) [Example 180]
CC50 (uninfected MT2 cells): > 1000 nM | EC50 ([3]; Table 1a): 87.4 nM

COc1cc(OC)c2c(=O)n(-c3ccc(Cl)c4c(NS(C)(=O)=O)nn(C)c34)c([C@H](Cc3cc(F)cc(F)c3)NC(=O)Cn3nc(C(F)F)c4c3C(F)(F)[C@@H]3C[C@H]43)nc2c1 (single isomer, unassigned) [Example 182]
CC50 (uninfected MT2 cells): > 1000 nM | EC50 ([3]; Table 1a): 0.061 nM

Cn1nc(NS(C)(=O)=O)c2c(Cl)ccc(-n3c([C@H](Cc4cc(F)cc(F)c4)NC(=O)Cn4ccc(C5CC5)n4)nc4cccc(F)c4c3=O)c21 (single isomer, unassigned) [Example 184]
CC50 (uninfected MT2 cells): > 1000 nM | EC50 ([3]; Table 1a): 0.35 nM

COc1cc(F)c2c(=O)n(-c3ccc(Cl)c4c(NS(C)(=O)=O)nn(C)c34)c([C@H](Cc3cc(F)cc(F)c3)NC(=O)Cn3nc(C(F)F)c4c3C(F)(F)[C@@H]3C[C@H]43)nc2c1 (single isomer, unassigned) [Example 187]
CC50 (uninfected MT2 cells): > 1000 nM | EC50 ([3]; Table 1a): 178 nM

COc1cc(F)c2c(=O)n(-c3ccc(Cl)c4c(NS(C)(=O)=O)nn(C)c34)c([C@H](Cc3cc(F)cc(F)c3)NC(=O)Cn3ccc(C4CC4)n3)nc2c1 (single isomer, unassigned) [Example 190]
CC50 (uninfected MT2 cells): > 1000 nM | EC50 ([3]; Table 1a): 42.2 nM

Cn1nc(NS(C)(=O)=O)c2c(Cl)ccc(-n3c([C@H](Cc4cc(F)cc(F)c4)NC(=O)Cn4ccc(C5CC5)n4)nc4cc(CS(C)(=O)=O)ccc4c3=O)c21 (single isomer, unassigned) [Example 206]
CC50 (uninfected MT2 cells): > 1000 nM | EC50 ([3]; Renilla, NL43, Table 1a): 0.64 nM

CC(C)c1ccc(-c2cc3[nH]ccc3nc2[C@H](Cc2cc(F)cc(F)c2)NC(=O)Cn2nc(C(F)F)c3c2C(F)(F)[C@@H]2C[C@H]32)cn1 [Example 82, 2-((3bS,4aR)-3-(difluoromethyl)-5,5-difluoro-3b,4,4a,5-tetrahydro-1H-cyclopropa[3,4]cyclopenta[1,2-c]pyrazol-1-yl)-N—((S)-2-(3,5-difluorophenyl)-1-(6-(6-isopropylpyridin-3-yl)-1H-pyrrolo[3,2-b]pyridin-5-yl)ethyl)acetamide]
CC50 (uninfected MT2 cells): 6310 nM | EC50 ([3]; Renilla, NL43, Table 1a): 3.81 nM
